From US20200270576A1, “Ex Vivo Maintenance and Expansion of Stem Cells” (priority 2017, published 2020)

Legend:
HSCs [1] = test: Retroviral (MSCV-IRES-GFP) transduction of HSCs, GFP in colonies; assay type: cell-based, mouse; settings: medium supplemented with 17-AAG; colonies assessed ten days after plating
Method: FIG. 19 depicts that addition of 17-AAG to culture medium supported highly efficient genetic modification of HSCs. The frequency of HSCs that were transduced with a GFP encoding retrovirus in culture is shown.
We tested whether the presence of HSP90 inhibitors in cell culture medium permitted efficient genetic modification of HSCs. Purified HSCs were cultured overnight in medium supplemented with 17-AAG. Retroviral supernatant (containing retrovirus encoding MSCV-IRES-GFP) was added two times (two hours apart), and the cells were cultured for an additional 24 hours. After culture, the cells were plated in methylcellulose semi-solid medium supplemented with hematopoietic cytokines. Ten days later, individual colonies (derived from single HSCs) were assessed for GFP expression by flow cytometry. […] We expect this will also be true for other HSP90 inhibitors, TRiC inhibitors and Hsf1 agonists. In addition, we expect that these agents will also be compatible for genetic modification of stem cells by other technologies (in addition to retrovirus), including but not limited to lentivirus, CRISPR and other genetic modification or editing technologies.

HSCs [2] = test: TMI fluorescence (unfolded protein abundance) in cultured HSCs; assay type: cell-based, mouse; settings: 18 hours in culture
Method: FIG. 15 depicts that addition of 17-AAG to culture medium reduced TMI fluorescence (unfolded protein abundance) within cultured HSCs (18 hour cultures shown).
Hsf1 promoted protein homeostasis maintenance in cultured HSCs (FIG. 13B), and 17-AAG promoted Hsf1 accumulation in cultured HSCs (FIG. 14). We thus investigated whether addition of 17-AAG to culture medium could promote protein homeostasis maintenance in HSCs. To test this, HSCs were cultured in the presence or absence (vehicle only; DMSO) of 17-AAG. After 18 hours in culture, we assessed protein homeostasis by quantifying unfolded protein abundance based on TMI fluorescence.

Hsf1 = Hsf1 expression and localization by immunofluorescence in cultured HSCs; assay type: cell-based, mouse; settings: 10 days culture; 17-AAG 5 nM, HSF1A 8 uM final concentration
Description: FIG. 14 depicts representative immunofluorescence staining of HSCs cultured for 10 days in the presence or absence of 17-AAG or HSF1A. Addition of 17-AAG or HSF1A to culture medium increased Hsf1 accumulation in the nucleus of cultured HSCs. Hsf1-deficient HSCs and cells stained without primary antibody (Neg Con) are shown as controls.
Since Hsf1 promoted HSC maintenance and protein homeostasis in vitro (FIG. 13), we investigated whether increasing Hsf1 expression or activity would further enhance HSC maintenance. […] Hsf1 can become active as a transcription factor when it translocates to the nucleus. We thus tested whether inhibitors of HSP90 or TRiC would promote Hsf1 accumulation in the nucleus of cultured HSCs by culturing HSCs for 10 days in the presence or absence of 17-AAG (HSP90 inhibitor; 5 nM final concentration) or HSF1A (TRiC inhibitor; 8 uM final concentration), and assessed Hsf1 expression and localization by immunofluorescence.

CD150+CD48-LSK HSCs = test: Frequency of CD150+CD48-LSK cells in 10-day HSC cultures; assay type: cell-based, mouse; settings: 10 HSCs/well, 10 days culture
Method: FIG. 18 depicts that addition of 17-AAG to culture medium increased the frequency of CD150^+CD48^−LSK HSCs in 10-day HSC cultures as compared to controls.
To further test if HSP90 inhibitors promote HSC maintenance/expansion, we cultured purified HSCs (10/well) for 10 days in the presence or absence of 17-AAG, and assessed the frequency of CD150^+CD48^−LSK cells in culture. CD150^+CD48^−LSK cells were about ˜4-fold enriched when 17-AAG was added to the culture medium (FIG. 18). […] Similar results are expected for other HSP90 inhibitors, TRiC inhibitors and agonists of Hsf1.

[3] = tested on: Hsf1-deficient and control HSCs; test: Competitive transplantation of cultured wild-type and Hsf1-deficient HSCs; assay type: cell-based, mice; settings: 12 weeks after transplantation
Description: FIG. 17 depicts that Hsf1 is required for 17-AAG and HSF1A to enhance HSC maintenance and expansion in vitro. Donor cell engraftment 12 weeks after transplantation of 10 wild-type and Hsf1-deficient HSCs cultured for 10 days in the presence or absence of 17-AAG, HSF1A or DMSO. Cells were transplanted with 2×10^5 freshly isolated congenic bone marrow cells (n=7-9; *P<0.05, **P<0.01).
We tested whether the positive effects of 17-AAG and HSF1A on HSC maintenance/expansion in vitro were mediated by Hsf1. Purified Hsf1-deficient and control HSCs were sorted from adult bone marrow (CD45.2^+) into 96-well plates (10/well) containing HSC medium supplemented with 17-AAG, HSF1A or vehicle (DMSO). HSCs were cultured for 10 days and competitively transplanted with 2×10^5 freshly isolated congenic bone marrow cells (CD45.1^+) into irradiated mice (CD45.1^+). Recipient mice were bled monthly to assess levels of donor-derived CD45.2^+ hematopoietic cells. […] However, the positive effect of 17-AAG and HSF1A was lost with Hsf1-deficient HSCs (FIG. 17).

HSCs [4] = test: Competitive transplantation of HSCs cultured 10 days, with serial transplantation; assay type: cell-based, murine
Description: FIG. 16A-B depict that HSC functionality is maintained and expanded in vitro by interventions that can induce/activate Hsf1. FIG. 16A depicts donor cell engraftment 16 weeks after transplantation of 10 HSCs cultured for 10 days in the presence or absence of an HSP90 inhibitor (17-AAG) or TRiC inhibitor (HSF1A) or from 10 freshly isolated HSCs. Cells were transplanted with 2×10^5 freshly isolated congenic bone marrow cells (n=3 independent experiments with 3-5 recipients/condition/experiment). […] Addition of either 17-AAG or HSF1A increased the reconstituting potential of cultured HSCs as compared to both control cultured and freshly isolated HSCs.
To test if HSCs depend on Hsf1 for their maintenance in vitro, we conditionally deleted Hsf1 from HSCs, cultured them for 10 days and assessed their long-term multilineage reconstituting activity in competitive transplantation assays. The assay for testing HSC function is to assess their capacity to give long-term (16+ week) multilineage (B cell, T cell and myeloid cell) reconstitution of the blood system of an irradiated transplant recipient. A competitive transplantation assay provides a quantitative readout of HSC regenerative activity.
Modest declines in proteostasis impair HSC maintenance in vivo. […] This raises the possibility that increasing Hsf1 activity could promote HSC maintenance in vitro by enhancing proteostasis capacity. To test if HSP90 inhibitors or TRiC inhibitors promote HSC maintenance in vitro, purified HSCs were sorted from young adult murine bone marrow (CD45.1^+) into 96-well plates (10/well) containing our HSC medium supplemented with 17-AAG or HSF1A. HSCs were cultured for 10 days and competitively transplanted with 2×10^5 freshly isolated congenic bone marrow cells (CD45.2^+) into irradiated mice (CD45.2^+). Recipient mice were bled monthly (for 4 months) to assess levels of donor-derived CD45.1^+ hematopoietic cells. Self-renewal capacity of HSCs was assessed by serially transplanting hematopoietic cells from the primary recipients into secondary irradiated recipients (3×10^6 cells/recipient). […] Similar results are expected for other HSP90 or TRiC inhibitors.
To test if HSP90 inhibitors or TRiC inhibitors enable HSC expansion in vitro, purified HSCs were sorted from young adult bone marrow (CD45.1^+) into 96-well plates (10/well) containing HSC medium supplemented with 17-AAG or HSF1A. HSCs were cultured for 10 days and competitively transplanted with 2×10^5 freshly isolated congenic bone marrow cells (CD45.2^+) into irradiated mice (CD45.2^+). At the same time, 10 freshly isolated HSCs were transplanted with 2×10^5 freshly isolated congenic bone marrow cells into irradiated mice. Recipient mice were bled monthly (for 4 months) to assess levels of donor-derived CD45.1^+ hematopoietic cells. Self-renewal capacity of HSCs was assessed by serially transplanting hematopoietic cells (3×10^6 cells/recipient) into secondary irradiated recipients. […] Similar results are expected for other HSP90 or TRiC inhibitors.

C=CCNC1=C2C[C@@H](C)C[C@H](OC)[C@H](O)[C@@H](C)/C=C(\C)[C@H](OC(N)=O)[C@@H](OC)/C=C\C=C(/C)C(=O)NC(=CC1=O)C2=O [17-AAG, 17-N-Allylamino-17-demethoxygeldanamycin]
colonies in which GFP was detected (HSCs [1]): 22/25
frequency of GFP-positive colonies (transduced HSCs) (HSCs [1]): 88%
TMI fluorescence (unfolded protein abundance) vs vehicle (DMSO) controls (HSCs [2]): less TMI fluorescence than controls
Hsf1 abundance in the nucleus of cultured HSCs (Hsf1): increase Hsf1 abundance in the nucleus
enrichment of CD150+CD48-LSK cells vs culture without agent (CD150+CD48-LSK HSCs): ~4 fold
donor cell reconstitution vs controls (DMSO), control HSCs ([3]; 10 HSCs cultured 10 days): higher levels of donor cell reconstitution as compared to controls
positive effect on donor cell reconstitution with Hsf1-deficient HSCs ([3]; Hsf1-deficient HSCs cultured 10 days): lost
donor cell reconstitution vs recipients of freshly isolated HSCs (HSCs [4]; 10 HSCs cultured 10 days vs 10 freshly isolated HSCs): higher levels of donor cell reconstitution as compared to recipients of freshly isolated HSCs
donor cell reconstitution in primary recipients vs HSCs cultured without agent (HSCs [4]; 10 HSCs cultured 10 days, with 2x10^5 congenic bone marrow cells, 16 weeks): significantly higher levels of donor cell reconstitution as compared to controls
fraction of recipients with long-term multilineage reconstitution vs HSCs cultured without agent (HSCs [4]; primary and secondary transplants, 16 week, >0.5% B-, T-, myeloid cells): greater fraction
fraction of recipients with long-term multilineage reconstitution vs freshly isolated HSCs (HSCs [4]; secondary transplants): significantly greater fraction
donor cell reconstitution in secondary recipients vs HSCs cultured without agent (HSCs [4]; serial transplant, 3x10^6 cells/recipient): even more pronounced
